# Results reported in US20160075651A1, “GLYCOLIPID INHIBITION USING IMINOSUGARS” (UNITHER VIROLOGY, LLC, priority 2013, published 2016).
# Residue numbers refer to the chain shown, from its start. Where two headings read alike, the source gives them in different places.
# Tests used:
# [1] = target: T1, ceramide glucosyltransferase (Homo sapiens, UniProt Q16739); test: Ceramide glucosyltransferase cellular assay (GM3 reduction in HL60 cells, NP-HPLC); format: cell-based; settings: for IC50: 3 days, GM3 peak area
# T1 construct: endogenous in cells; host or cells: HL60 cells
# T1 sequence (Q16739 1-394): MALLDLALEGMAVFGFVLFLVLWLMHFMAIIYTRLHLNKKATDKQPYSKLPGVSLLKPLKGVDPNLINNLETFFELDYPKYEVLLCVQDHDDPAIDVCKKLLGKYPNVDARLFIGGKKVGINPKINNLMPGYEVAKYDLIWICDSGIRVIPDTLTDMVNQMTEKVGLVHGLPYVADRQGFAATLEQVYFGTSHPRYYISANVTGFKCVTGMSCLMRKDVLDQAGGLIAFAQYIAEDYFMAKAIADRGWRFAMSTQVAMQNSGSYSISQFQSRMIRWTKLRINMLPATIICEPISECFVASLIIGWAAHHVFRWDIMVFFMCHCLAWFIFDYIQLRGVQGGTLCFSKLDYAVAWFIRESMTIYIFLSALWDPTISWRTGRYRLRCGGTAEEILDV
# [2] = target: T2, human placental β-glucocerebrosidase (Homo sapiens, UniProt P04062); test: β-Glucocerebrosidase inhibition assay (4-methylumbelliferyl-β-glucoside, fluorogenic); format: biochemical
# T2 construct: Human placental β-glucocerebrosidase was isolated and purified; from tissue; host or cells: human placenta
# T2 sequence (P04062 40-536): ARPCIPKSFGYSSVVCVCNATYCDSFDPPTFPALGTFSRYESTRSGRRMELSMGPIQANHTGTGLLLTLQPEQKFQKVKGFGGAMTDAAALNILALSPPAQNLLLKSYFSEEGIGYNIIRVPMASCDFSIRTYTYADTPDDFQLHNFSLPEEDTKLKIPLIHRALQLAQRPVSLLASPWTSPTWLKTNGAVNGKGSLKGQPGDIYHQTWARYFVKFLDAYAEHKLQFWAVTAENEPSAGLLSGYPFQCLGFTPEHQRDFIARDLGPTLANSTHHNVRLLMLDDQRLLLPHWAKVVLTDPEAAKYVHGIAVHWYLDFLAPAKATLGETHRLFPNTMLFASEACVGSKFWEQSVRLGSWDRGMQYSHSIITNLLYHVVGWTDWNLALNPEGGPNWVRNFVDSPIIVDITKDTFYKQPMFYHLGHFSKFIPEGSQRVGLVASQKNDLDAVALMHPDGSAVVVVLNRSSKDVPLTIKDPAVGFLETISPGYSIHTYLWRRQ
# [3] = target: T3, β-glucocerebrosidase (N370S mutant) (Homo sapiens, UniProt P04062, N409S); test: β-Glucocerebrosidase activation (chaperone) assay in Gaucher N370S cells; format: cell-based; settings: 3 days, versus untreated cells
# T3 construct: mutant Gaucher lymphoblasts with the most common N370S mutation; endogenous in cells; host or cells: Gaucher (N370S) lymphoblasts
# T3 sequence (P04062 40-536 N409S): T2 sequence (P04062 40-536) with N370S
# ER alpha glucosidase = test: Free oligosaccharide analysis (measure of ER alpha glucosidase inhibition); format: cell-based; settings: FIG. 13, compared with UV-4
# Experimental: Free glucosyl oligosaccharides were measured according to Alonzi et al. Biochem. J. (2008) 409, 571-580.
# [4] = test system: glucosylceramide and lactosylceramide in Huh7.5 cells; test: Cellular glucosylceramide and lactosylceramide measurement in Huh7.5 hepatoma cells (lipidomics); format: cell-based; settings: human hepatoma cells (Huh7.5), 10 μM, 4 days
# Experimental: Glycosphingolipids (including GlcCer and LacCer) were measured according to Wolf, C. and Quinn, P. J. Progress in lipid research (2008) 47, 15-36. Briefly, chloroform-methanol extracts of cellular lipids were subjected to HPLC to isolate the glycosphingolipid species from other cellular lipids, then subjected to two-dimentional mass-spectromertry with internal standards in order to quantify particular glycosphingolipid species.
# Huh7.5 cells were grown in DMEM supplemented with 100 U/ml penicillin, […] streptomycin, 2 mM L-glutamine, 1×MEM, and 10% FBS. All incubations were at 37° C./5% CO2. The effect of iminosugar treatment on cellular lipid profiles was determined in cells after incubation for 4 days in the presence or absence of iminosugars, at which point they were harvested using trypsin/EDTA, washed 3 times in cold PBS, counted using trypan blue staining, and final cell pellets were resuspended in methanol:acetone (vol 1:1) prior to lipid profiling, A small volume of each sample was used for total protein estimation using the Bradford protein assay (Bio-Rad).
# The methodology has been described in detail previously (Wolf, C., Quinn, P. J., Lipidomics: Practical aspects and applications. Progress in Lipid Research 2008, 47, 15-36: Quinn, P. J., Rainteau, D., Wolf, C., Lipidomics of the red cell in diagnosis of human disorders. Methods Mol Biol 2009, 579, 127-159). […]
SMILES,IC50 [1] [nM],"potency in cells relative to NB-DNJ ([1]; GM3 reduction, versus NB-DNJ (Zavesca))","IC50 ([2]; human placental enzyme, 0.5 mM 4-MU-β-glucoside, pH 5.2) [nM]",Activation fold at 10 μM ([3]; 10 μM) [fold],IC50 [2] [nM],Activation fold (@ 1 μM) ([3]; 1 μM),ER glucosidase inhibitory activity (free oligosaccharide analysis) (ER alpha glucosidase),inhibition of the cellular glucosylceramide / lactosylceramide pathway [4]
"COCCCCCCCCCN1C[C@H](O)[C@@H](O)[C@H](O)[C@H]1CO [UV4, N-(9-methoxynonyl)deoxynojirimycin]",190 ± 21,approximately 100 times,1850 ± 40,2.1,–,–,–,–
"[N-]=[N+]=Nc1ccc(NCCCCCCN2C[C@H](O)[C@@H](O)[C@H](O)[C@H]2CO)c([N+](=O)[O-])c1 [UV5, N—(N′-{4′-azido-2′-nitrophenyl)-6-aminohexyl)-deoxynojirimycin]",49 ± 5,–,–,–,150 ± 30,1.7 (@ 1 μM) fold,–,–
"Cc1c(C)c2c(c(C)c1OCCCCCN1C[C@H](O)[C@@H](O)[C@H](O)[C@H]1CO)CC[C@@](C)(CCC[C@H](C)CCC[C@H](C)CCCC(C)C)O2 [Top-DNJ, tocopheryl-pentyl deoxynojirimycin]",–,–,–,–,–,–,virtually devoid of ER glucosidase inhibitory activity,near-complete inhibition
